Reference: publication PMC9138991, “Effect of Trimethine Cyanine Dye- and Folate-Conjugation on the In Vitro Biological Activity of Proapoptotic Peptides” (Biomolecules, 2022)

Key:
Assay type in all cases: cell-based, human
KB cells = test: Cell viability assay (CellTiter-Blue), KB cells; conditions: 7 × 10^3 cells per well, folic acid-depleted RPMI-1640 + 10% FBS, 1% DMSO, 24 h at 37 °C, then CellTiter-Blue 4 h, three biological replicates fitted in Origin, standard error in brackets
Description: (§1) KB and MCF7 cells were kindly gifted by Prof. Arwyn T. Jones (Cardiff University), HEK293 cells were purchased from Public Health England, and SK-OV-3 cells were purchased from National Collection of Authenticated Cell Cultures (https://cell-bank.org.cn/). Cells were routinely tested for mycoplasma infection. KB and SK-OV-3 cells were maintained in T75 flasks at 37 °C in a 5% CO2 atmosphere in folic acid-depleted Roswell Park Memorial Institute (RPMI)-1640 medium supplemented with 10% (v/v) fetal bovine serum (FBS). MCF7 and HEK293 cells were maintained in T75 flasks at 37 °C in a 5% CO2 atmosphere in Dulbecco’s Modified Eagle’s medium (DMEM) supplemented with 10% (v/v) FBS. Cells were maintained at a sub-confluent monolayer and split at 80–85% confluency. For splitting, cells were washed with PBS, trypsinized in 1 mL of trypsin, and 200 µL of the 1000 µL trypsin cell suspension was re-suspended in 12 mL fresh DMEM containing 10% (v/v) FBS in a new T75 flask. KB and SK-OV-3 cells were used for biological experiments after being maintained for at least 10 days in folic acid-depleted RPMI-1640 medium.
(§2) SK-OV-3, MCF7, and HEK293 cells were seeded at a density of 2 × 10^4 cells per well in a Nunc™ MicroWell™ 96-well plate and grown at 37 °C in a 5% CO2 atmosphere in DMEM supplemented with 10% (v/v) FBS for 24 h. KB cells were seeded at a density of 7 × 10^3 cells per well in a 96-well plate and grown at 37 °C in a 5% CO2 atmosphere in folic acid-depleted RPMI-1640 medium supplemented with 10% (v/v) FBS for 24 h. Stock solutions of compounds 2–6 and 11–13 were obtained by dissolving the compounds in sterile deionized water. Compounds 1, and 7–10 were dissolved in pure DMSO. The stock solutions were diluted into the proper medium (according to the cell line tested) supplemented with 10% FBS to the appropriate concentration, and cells in each well were incubated with 100 µL of the solution. The solutions in each well were then adjusted to a concentration of 1% (v/v) DMSO. After 24 h at 37 °C, 20 µL of CellTiter-Blue™ was added to each well. The plate was incubated for another 4 h at 37 °C before analysis on a Perkin Elmer Victor X plate reader (excitation 531 nm; emission 595 nm). Each data point was calculated from a minimum of nine values resulting from three biological replicates (i.e., cells split from three different passages); each biological replicate is calculated from three technical replicates (i.e., cells split from the same passage). Value from media-only with CellTiter-Blue™ was set at 0% viability. This value was then subtracted from the values from cell-only (i.e., non-treated) wells with CellTiter-Blue™ in each biological replicate and set as 100% viability. For treatments of Cy3-containing compounds, blanks were generated with cell-free wells containing the compounds incubated for 24 h before addition of CellTiter-Blue™. The fluorescent reading for these wells was deducted from the treatment readings. Dose-response fitting curves were generated using Origin, version 2019b, OriginLab Corporation, Northampton, MA, USA (Figures S21–S24, Supplementary Materials).
(§3) Comparison of cytotoxicity fitting curves was achieved by applying the extra sum-of-squares F test, performed using GraphPad Prism version 9 for Windows, GraphPad Software, La Jolla, California, USA (https://www.graphpad.com/). […] Statistical analysis on the flow cytometry data was achieved by applying the unpaired two-tailed t-test test, performed using GraphPad Prism version 9 for Windows, GraphPad Software, La Jolla California USA, USA (https://www.graphpad.com/).
(§4) Cytotoxicity of 1–13 was evaluated using the CellTiter-Blue assay on KB, MCF7, SK-OV-3, and HEK293 cells. KB cells are derived from human cervical cancer, while SK-OV-3 cells are derived from human ovarian cancer. […] This feature is of particular relevance in anticancer applications, as it can be exploited for selective targeting and delivery. […]

SK-OV-3 cells = test: Cell viability assay (CellTiter-Blue), SK-OV-3 cells; conditions: 2 × 10^4 cells per well, medium + 10% FBS, 1% DMSO, 24 h at 37 °C, then CellTiter-Blue 4 h, three biological replicates fitted in Origin, standard error in brackets
Description: as §1, §2, §3, §4

MCF7 cells = test: Cell viability assay (CellTiter-Blue), MCF7 cells; conditions: MCF7 cells, 2 × 10^4 cells per well, DMEM + 10% FBS, 1% DMSO, 24 h at 37 °C, then CellTiter-Blue 4 h; three biological replicates fitted in Origin, standard error in brackets
Description: as §1, §2, §3, §4

HEK293 cells = test: Cell viability assay (CellTiter-Blue), HEK293 cells; conditions: 2 × 10^4 cells per well, DMEM + 10% FBS, 1% DMSO, 24 h at 37 °C, then CellTiter-Blue 4 h, three biological replicates fitted in Origin, standard error in brackets
Description: as §1, §2, §3, §4

[1] = system: KB, MCF7, SK-OV-3, and HEK293 cells; test: Cell viability assay (CellTiter-Blue), statements over all tested cell lines
Description: as §2, §3
Cytotoxicity of 1–13 was evaluated using the CellTiter-Blue assay on KB, MCF7, SK-OV-3, and HEK293 cells. KB cells are derived from human cervical cancer, while SK-OV-3 cells are derived from human ovarian cancer. […] This feature is of particular relevance in anticancer applications, as it can be exploited for selective targeting and delivery. MCF7 is a cell line derived from human breast cancer with low levels of folate receptor α [27]. Therefore, it can serve as the negative control for folate receptor α mediated tumor-targeted drug delivery systems. HEK293 is a non-cancer cell line and was chosen to evaluate the specificity of the tested compounds toward cancer cells.

Row | SMILES | EC50 (KB cells) [µM] | EC50 (SK-OV-3 cells) [µM] | EC50 (MCF7 cells) [µM] | EC50 (HEK293 cells) [µM] | EC50 ([1]; KB, SK-OV-3, MCF7 and HEK293 cells, CellTiter-Blue, 24 h) [µM] | Potency (cytotoxicity) in the tested cell lines, in words ([1]; KB, SK-OV-3, MCF7 and HEK293 cells, CellTiter-Blue, extra sum-of-squares F test) | Selectivity of cytotoxicity between cell lines, in words ([1]; folate receptor α-high KB and SK-OV-3 versus MCF7 and HEK293)
1 | CC(C)C[C@H](NC(=O)[C@H](CCCCN)NC(=O)[C@H](C)NC(=O)[C@H](CC(C)C)NC(=O)[C@H](CCCCN)NC(=O)[C@H](CCCCN)NC(=O)[C@H](C)NC(=O)[C@H](CC(C)C)NC(=O)[C@H](CCCCN)NC(=O)[C@H](C)NC(=O)[C@H](CC(C)C)NC(=O)[C@@H](N)CCCCN)C(=O)N[C@@H](C)C(=O)N[C@@H](CCCCN)C(N)=O [Compound 2, reference compound] | > 400 | > 400 | > 400 | > 400 | > 300 | least potent amongst the tested compounds | 
2 | CC(=O)N[C@@H](CCCCNC(=O)[C@H](CCC(=O)O)NC(=O)c1ccc(NCc2cnc3nc(N)nc(O)c3n2)cc1)C(=O)N[C@@H](CCCCN)C(=O)N[C@@H](CC(C)C)C(=O)N[C@@H](C)C(=O)N[C@@H](CCCCN)C(=O)N[C@@H](CC(C)C)C(=O)N[C@@H](C)C(=O)N[C@@H](CCCCN)C(=O)N[C@@H](CCCCN)C(=O)N[C@@H](CC(C)C)C(=O)N[C@@H](C)C(=O)N[C@@H](CCCCN)C(=O)N[C@@H](CC(C)C)C(=O)N[C@@H](C)C(=O)N[C@@H](CCCCN)C(N)=O [Compound 11] | 242 | > 400 | > 400 | > 400 |  |  | enhanced toxicity in KB but not in SK-OV-3 cells when compared to MCF7 and HEK293 cells
